Assay results: US11174299B2, “Peptides and compositions for prevention of cell adhesion and methods of using same” (D[…]., priority 2008, dated 2021)

Columns and labels:
[1] = system: P. aeruginosa strong biofilm producer strain 142; test: Bacterial adhesion assay on contact lenses, P. aeruginosa strong biofilm producer strain 142; assay type: cell-based, Pseudomonas aeruginosa; conditions: PBS (No-TLF)
Method: (§1) The peptide APi1775 (gr14Z-BBC2) according to SEQ ID NO: 28 was immobilized onto Etafilcon A™ (Johnson & Johnson Vision Care Inc., Jacksonville, Fla., USA; Base curve: 8.7 mm, Diameter: 14.0 mm) contact lenses. […] The coating (covalently bonding the peptide to the surface of the contact lenses) procedure was performed by activating the surface of the contact lenses with carboxyl-reactive crosslinker reactive groups EDC (1-ethyl-3-(-3-dimethylaminopropyl) carbodiimide hydrochloride, MW 191.70) followed by incubation with APi1775 (gr14Z-BBC2) at 0.1 μM 1.0 μM and 10 μM peptide concentration. Peptide grZ14s-nyCyc-3PEG-Pal soaked (1 μM) contact lenses were used as positive control, this peptide is used for non-covalent coating of contact lenses.
(§2) Antimicrobial activity was determined against P. aeruginosa strain 6294 (isolated from a case of microbial keratitis), P. aeruginosa strong biofilm produces strain 142 (isolated from a case of microbial keratitis) and S. aureus strain 31 (isolated from a case of contact lens-induced peripheral ulcer) following established methods. Briefly, P. aeruginosa and S. aureus were grown overnight in tryptone soya broth (TSB; Oxoid, Basingstoke, UK) and re-suspended in 1/10 TSB and PBS respectively to an OD660 nm of 0.1 (1.0×10^8 colony-forming unit (CFU) per ml). The bacterial cell suspensions were then diluted to […] for adhesion assays. Non-coated control, process control, APi1775 peptide coated and grZ14s-nvCyc-3PEG-Pal soaked lenses were washed in PBS and transferred to 1 ml of bacterial suspension in 24 well tissue culture plates (CELESTAR®, Greiner bio-one, Frickenhausen, Germany), and incubated at 37° C. for 18 hours with shaking (120 rpm). For P. aeruginosa strain 6294, the assay was performed with PBS and tear Like Fluid (TFL), for P. aeruginosa strain 142 the assay was performed with PBS and for S. aureus the assay was performed using 1/10 TSB. Lenses were washed three times following incubation with PBS to remove loosely adhered bacteria, then stirred in a vortex mixer rapidly in 2 ml of fresh PBS containing a small magnetic stirring bar. The resulting slurry was serially diluted and 20 μl was added onto nutrient agar (TSA; Oxoid, Basingstoke, UK) for recovery of cells. After incubation at 37° C. for 18 hours, viable microorganisms were enumerated as CFU for each lens. Measurements were performed in triplicates for at least three occasions.
(§3) Data were analyzed using Microsoft Office Excel and Statistical Package for the Social Sciences software version 23.0 (SPSS, Inc., Chicago, Ill.). The bacterial adhesion data were log10 (x+1) transformed prior to analysis where x is the adherent bacteria CFU/lens. Bacterial adhesion, contact lens surface elemental composition, and contact lens parameters were analysed using an independent 2-sample t-test, and expressed with descriptive statistics. Statistical significance was set at 5%.

[2] = system: P. aeruginosa strain 6294; test: Bacterial adhesion assay on contact lenses, P. aeruginosa strain 6294; assay type: cell-based, Pseudomonas aeruginosa; conditions: for log inhibition of P. aeruginosa 6294 adhesion: 18 hours; for percentage of inhibition of P. aeruginosa 6294 adhesion: TLF
Method: as §1, §2, §3

[3] = system: Murine L929 cells; test: In vitro cytotoxicity of immobilised contact lenses (ISO 10993-5, Trypan Blue); assay type: cell-based; conditions: peptide coated contact lenses (0.1, 1.0, 10.0 μM) on murine L929 monolayer, 24 h
Method: Testing in vitro cytotoxicity of APi1775 (gr14Z-BBC2) immobilised contact lenses was performed according to ISO standard 10993-5 standardized procedures. Murine L929 cells were grown to >80% confluency in 24 well tissue culture plates (CELESTAR®, Greiner bio-one, Frickenhausen, Germany) with DMEM cell culture media. The medium was aspirated and replaced with adequate fresh growth medium every 2-3 days. All the test and control contact lenses were washed with sterile PBS prior to the start of the study and then directly placed on the cell monolayer for examination of in vitro cytotoxicity. During this any cytotoxicity of the lenses will disrupt the normal functions of cells beneath and perhaps adjacent to the samples. The samples were incubated overnight at 37° C. with 5% CO2. After 24 hours, cells were stained with vital stain (Trypan Blue; Sigma-Aldrich, St Louis, Mo., USA) and cytotoxicity was assessed using bright field and phase-contrast microscopy. Cytotoxic responses are graded according to a standard key, which quantifies the viability and zonal extent. The samples were used in triplicates.

[4] = Dissolution of peptide in Phosphate Buffer Saline (visual inspection); assay type: physicochemical
[5] = system: Pseudomonas aeruginosa; test: Growth test on Pseudomonas aeruginosa; assay type: cell-based; conditions: FIG. 2, FIG. 4
[6] = system: Pseudomonas aeruginosa; test: Prevention of Pseudomonas aeruginosa attachment by synthetic peptides; assay type: cell-based; conditions: for anti adherence activity on P. aeruginosa: FIG. 3
Method: The synthetic peptide grZ28C [[…] (SEQ ID NO: 1)] gave approximately 50% prevention of Pseudomonas aeruginosa attachment at three concentrations: 50, 5 and 0.5 μg/ml (FIG. 1). The activity was similar to that of the AbacZ17C, peptide based on the anemone cytotoxin active region. Abac10C, which was used as a negative control peptide, was synthesized based on the N-terminal sequence of Abac17C, without the active residue [[…] (SEQ ID NO: 27)].
For peptide grZ35 cyc, the peptide sequence […] (SEQ ID NO: 6) which represents the extracellular region, residue 259-292, was synthesized with two Cysteines in the C and N termini and S—S bridged. For peptide grZ28C, the peptide sequence […] (SEQ ID NO: 3) which represents the extracellular region, residue 259-284, was synthesized with two Cysteines in C and N termini.

[7] = lens treated with 0.1 μM peptide
[8] = lens treated with 1.0 μM peptide
[9] = lens treated with 10.0 μM peptide
[10] = lens coated with 0.1 μM peptide, PBS
[11] = lens coated with 1.0 μM peptide, PBS
[12] = lens coated with 10.0 μM peptide, PBS

SVHSFDYDWYNV (SEQ ID NO: 28) (immobilized on Etafilcon A contact lens) [APi1775]
inhibition of bacterial adhesion, strain 142 [1, 7]: 44.73%
log inhibition of P. aeruginosa strain 142 adhesion [1, 7]: 0.26 log
inhibition of bacterial adhesion, strain 142 [1, 8]: 43.62%
log inhibition of P. aeruginosa strain 142 adhesion [1, 8]: 0.25 log
inhibition of bacterial adhesion, strain 142 [1, 9]: 77.80%
log inhibition of P. aeruginosa strain 142 adhesion [1, 9]: 0.65 log
percentage inhibition of P. aeruginosa 6294 adhesion [2, 10]: 77.1%
log inhibition of P. aeruginosa 6294 adhesion [2, 10]: 0.79 log
percentage inhibition of P. aeruginosa 6294 adhesion [2, 11]: 77.5%
log inhibition of P. aeruginosa 6294 adhesion [2, 11]: 0.83 log
percentage inhibition of P. aeruginosa 6294 adhesion [2, 12]: 47.7%
log inhibition of P. aeruginosa 6294 adhesion [2, 12]: 0.29 log
percentage of inhibition of P. aeruginosa 6294 adhesion [2, 7]: 31.76%
log inhibition of P. aeruginosa 6294 adhesion ([2]; lens treated with 0.1 μM peptide, Tear Like Fluid (TLF)): 0.17 log
percentage of inhibition of P. aeruginosa 6294 adhesion [2, 8]: 80.40%
log inhibition of P. aeruginosa 6294 adhesion ([2]; lens treated with 1.0 μM peptide, Tear Like Fluid (TLF)): 0.71 log
percentage of inhibition of P. aeruginosa 6294 adhesion [2, 9]: 96.64%
log inhibition of P. aeruginosa 6294 adhesion ([2]; lens treated with 10.0 μM peptide, Tear Like Fluid (TLF)): 1.47 log
cytotoxicity to mammalian cells in vitro [3]: not cytotoxic
dissolution in Phosphate Buffer Saline ([4]; 0.1 μM, 1.0 μM concentration): completely dissolved
dissolution in Phosphate Buffer Saline ([4]; 10.0 μM, rotary shaker at 37° C. overnight, visual inspection): completely dissolved

SFSQNKSVHSFDYDWYNVSDQADLKNQLGDAGYV (SEQ ID NO: 6) [grZ35 cyc]
effect on P. aeruginosa growth [5]: not inhibited
anti adherence activity on P. aeruginosa [6]: anti adherence activity

CSFSQNKSVHSFDYDWYNVSDQADLKNC (SEQ ID NO: 1) [grZ28C]
effect on P. aeruginosa growth [5]: not inhibited
anti adherence activity on P. aeruginosa [6]: anti adherence activity
prevention of Pseudomonas aeruginosa attachment ([6]; at three concentrations: 50, 5 and 0.5 μg/ml (FIG. 1)): approximately 50%
